Source: ChEMBL document CHEMBL4152195, “Lipid reducing activity and toxicity profiles of a library of polyphenol derivatives” (Eur J Med Chem, 2018)
pEC50: −log10 of the molar value. Calls of active or inactive are those of the source. The rule behind the calls is not given here.

Legend:
3T3-L1 [1] = test: Cytotoxicity against mouse 3T3L1 cells at 50 uM after 24 hrs by sulforhodamine B assay; assay type: cell-based; settings: 3t3-l1, 24 h
3T3-L1 [2] = test: Cytotoxicity against mouse 3T3L1 cells at 50 uM after 48 hrs by sulforhodamine B assay; assay type: cell-based; settings: 3t3-l1, 48 h
Danio rerio [3] = organism: Danio rerio; test: Toxicity in zebra fish larvae assessed as induction of malformation at 50 uM after 24 to 48 hrs; assay type: organism-based; settings: zebrafish, in vivo
Danio rerio [4] = organism: Danio rerio; test: Toxicity in zebra fish larvae at 5 uM after 48 hrs; assay type: organism-based; settings: zebrafish, in vivo
Danio rerio [5] = organism: Danio rerio; test: Lipid lowering activity in zebrafish embryos at 5 uM by Nile red fat metabolism assay; assay type: functional, organism-based
Danio rerio [6] = organism: Danio rerio; test: Lipid lowering activity in zebrafish embryos by Nile red fat metabolism assay; assay type: functional, organism-based
Danio rerio [7] = organism: Danio rerio; test: Downregulation of fasn mRNA expression in zebra fish larvae at lipid lowering activity EC50 after 48 hrs by RT-PCR analysis; assay type: functional
Danio rerio [8] = organism: Danio rerio; test: Lipid lowering activity in zebrafish embryos 50 uM by Nile red fat metabolism assay; assay type: functional, organism-based

Which Activity (3T3-L1 [1]) does the source give for `O=c1c2cc(O)ccc2oc2cccc(O)c12` here?
Its Activity is 0 to 25%.

And the Activity (3T3-L1 [2])?
The Activity was 0 to 25%.

And the Activity (Danio rerio [3])?
The Activity was “Toxic”.

What about the Activity (Danio rerio [4]) of the same molecule?
Its Activity is 0 to 25%.

`CCCOc1ccc(NCC(C)C)c2c(=O)c3ccccc3sc12` was tested. Which Activity (Danio rerio [5]) did it give?
Its Activity is “Active”.

What about the pEC50 (Danio rerio [6]) of the same molecule?
The pEC50 was 7.15.

And the Activity (3T3-L1 [1])?
Its Activity is 0 to 25%.

And the Activity (Danio rerio [7])?
Its Activity is “inactive”.

And the Activity (3T3-L1 [2])?
Its Activity is 0 to 25%.

And the Activity (Danio rerio [4])?
Its Activity is 0 to 25%.

For `CC1(C)C=Cc2cc(O)c3c(=O)c4ccccc4oc3c2O1`, which Activity (Danio rerio [5]) is on record?
Its Activity is “Active”.

And the pEC50 (Danio rerio [6])?
Its pEC50 is 6.54.

What about the Activity (3T3-L1 [1]) of the same molecule?
Its Activity is 0 to 25%.

And the Activity (3T3-L1 [2])?
The Activity was 0 to 25%.

What about the Activity (Danio rerio [4]) of the same molecule?
Its Activity is 0 to 25%.

What does the source list for `O=c1c2ccccc2oc2cc(O)c(O)cc12`?
Activity (Danio rerio [5]): Active; pEC50 (Danio rerio [6]): 6.01; Activity (3T3-L1 [1]): 0 to 25%; Activity (3T3-L1 [2]): 0 to 25%; Activity (Danio rerio [4]): 0 to 25%

Which results are given for `COc1cc2c(c3oc4ccccc4c(=O)c13)OC(C)(C)CC2`?
Activity (Danio rerio [5]): Active; pEC50 (Danio rerio [6]): 6.14; Activity (3T3-L1 [1]): 0 to 25%; Activity (3T3-L1 [2]): 0 to 25%; Activity (Danio rerio [4]): 0 to 25%

What does the source list for `COC(=O)COc1ccc2c(=O)c3ccc(OCC(=O)OC)cc3oc2c1`?
Activity (Danio rerio [5]): Active; pEC50 (Danio rerio [6]): 5.78; Activity (3T3-L1 [1]): 0 to 25%; Activity (3T3-L1 [2]): 0 to 25%; Activity (Danio rerio [4]): 0 to 25%

How did the Activity (Danio rerio [5]) turn out when `O=c1c2ccccc2oc2ccc(O)c(O)c12` was run?
The Activity was “Active”.

And the pEC50 (Danio rerio [6])?
Its pEC50 is 6.89.

And the Activity (3T3-L1 [1])?
Its Activity is 0 to 25%.

What about the Activity (Danio rerio [7]) of the same molecule?
Its Activity is “inactive”.

What about the Activity (3T3-L1 [2]) of the same molecule?
Its Activity is 0 to 25%.

And the Activity (Danio rerio [4])?
The Activity was 0 to 25%.

How did the Activity (Danio rerio [5]) turn out when `COc1cc2oc3c(OC)c4c(cc3c(=O)c2cc1OC)CCC(C)(C)O4` was run?
Its Activity is “Active”.

What about the pEC50 (Danio rerio [6]) of the same molecule?
Its pEC50 is 6.27.

And the Activity (3T3-L1 [1])?
Its Activity is 0 to 25%.

And the Activity (3T3-L1 [2])?
The Activity was 0 to 25%.

What about the Activity (Danio rerio [4]) of the same molecule?
The Activity was 0 to 25%.

For `Oc1ccc(/C=C/c2cc(O)cc(O)c2)cc1` [RESVERATROL], which Activity (Danio rerio [5]) is on record?
The Activity was “Active”.

And the pEC50 (Danio rerio [6])?
The pEC50 was 6.22.

And the Activity (Danio rerio [8])?
Its Activity is “Active”.

What does the source list for `COc1cc2oc3ccccc3c(=O)c2cc1OC`?
Activity (Danio rerio [5]): Active; pEC50 (Danio rerio [6]): 6.55; Activity (3T3-L1 [1]): 0 to 25%; fold change (FC) (Danio rerio [7]): 2; Activity (3T3-L1 [2]): 0 to 25%; Activity (Danio rerio [4]): 0 to 25%

What does the source list for `COc1cccc2oc3ccccc3c(=O)c12`?
Activity (Danio rerio [5]): Active; pEC50 (Danio rerio [6]): 6.10; Activity (3T3-L1 [1]): 0 to 25%; Activity (3T3-L1 [2]): 0 to 25%; Activity (Danio rerio [4]): 0 to 25%
